Source: PubChem BioAssay (NCI)
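These data come from cells grown in 96-well plates and exposed to compound for 48 hours at five concentrations. Here, GI50 denotes the concentration required for 50% inhibition of growth. The concentration for full growth arrest is given as TGI.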

Columns and labels:
Experiment in all cases: DTP human tumour cell line panel, 48 h
ACHN renal = system: ACHN renal
HT29 colon = system: HT29 colon
HOP-62 NSCLC = system: HOP-62 NSCLC
SK-MEL-28 melanoma = system: SK-MEL-28 melanoma
OVCAR-8 ovarian = system: OVCAR-8 ovarian
CCRF-CEM leukemia = system: CCRF-CEM leukemia
NCI-H522 lung = system: NCI-H522 lung
KM12 colon = system: KM12 colon
SR leukemia = system: SR leukemia
NCI/ADR-RES ovarian = system: NCI/ADR-RES ovarian

| SMILES | TGI (ACHN renal) [µM] | TGI (HT29 colon) [µM] | TGI (HOP-62 NSCLC) [µM] | TGI (SK-MEL-28 melanoma) [µM] | TGI (OVCAR-8 ovarian) [µM] | TGI (CCRF-CEM leukemia) [µM] | TGI (NCI-H522 lung) [µM] | TGI (KM12 colon) [µM] | TGI (SR leukemia) [µM] | GI50 (NCI-H522 lung) [µM] | GI50 (ACHN renal) [µM] | GI50 (HT29 colon) [µM] | GI50 (HOP-62 NSCLC) [µM] | GI50 (KM12 colon) [µM] | GI50 (SK-MEL-28 melanoma) [µM] | GI50 (OVCAR-8 ovarian) [µM] | GI50 (CCRF-CEM leukemia) [µM] | GI50 (NCI/ADR-RES ovarian) [µM] | TGI (NCI/ADR-RES ovarian) [µM] | GI50 (SR leukemia) [µM] |
| --- | --- | --- | --- | --- | --- | --- | --- | --- | --- | --- | --- | --- | --- | --- | --- | --- | --- | --- | --- | --- |
| O=C1C2CC=CCC2C(=O)C12CCc1ccccc12 (stereo unspecified) | > 100 | > 100 | > 100 | > 100 | > 100 | > 100 |  |  |  |  |  |  |  |  |  |  |  |  |  |  |
| COc1cc2cc3c4c(cc(OC)c(OC)c4c2cc1OC)CCN3C(=O)N(C)C | > 100 | > 100 | > 100 | > 100 | > 100 | > 100 | > 100 | > 100 | > 100 |  |  |  |  |  |  |  |  |  |  |  |
| C/C(CC(=O)Nc1ccc(Cl)cc1)=N\NC(=O)C[n+]1ccccc1 | > 100 | > 100 | > 100 | > 100 | > 100 | > 100 | > 100 | > 100 |  |  |  |  |  |  |  |  |  |  |  |  |
| Cc1ccc(C(=O)N2c3ccccc3N(C)n3cccc3C2CC(=O)O)cc1 (stereo unspecified) | > 100 | > 100 | > 100 | > 100 | > 100 | > 100 | > 100 | > 100 |  |  |  |  |  |  |  |  |  |  |  |  |
| CC(C)(c1ccc(Oc2ccc(C#N)c(C#N)c2)cc1)c1ccc(Oc2ccc(C#N)c(C#N)c2)cc1 | > 100 | > 100 | > 100 | > 100 | > 100 | > 100 | > 100 | > 100 |  | > 100 | > 100 | > 100 | > 100 | > 100 | > 100 | > 100 | > 100 |  |  |  |
| COc1cc(-c2csc(NC(=O)Nc3cc(C(F)(F)F)cc(C(F)(F)F)c3)n2)cc(OC)c1OC | 10.6 | 11.2 | 6.36 | 12.6 | 13 | 7.83 | 5 | 11.8 |  | 1.6 | 2.78 | 2.67 | 2.11 | 2.49 | 3.02 | 2.73 | 2.26 | 2.65 | 12.1 |  |
| COC1=C2C[C@H](O)C(C)C[C@@]2(OC)OC1=O (stereo partly specified) |  | > 100 | > 100 | > 100 |  | > 100 | > 100 | > 100 |  |  |  |  |  |  |  |  |  |  |  |  |
| CC(C)(O)[C@@H]1CC[C@@]2(C)CCC[C@H](O)[C@H]2C1 | > 100 | > 100 | > 100 | > 100 | > 100 | > 100 | > 100 | > 100 | > 100 |  |  |  |  |  |  |  |  |  |  |  |
| CC(=O)C1COC(O)C1C (stereo unspecified) | 80.9 | > 100 | 33 | 38.6 | 46 | > 100 |  | 28 | 40.1 |  |  |  |  |  |  |  |  |  | 48.6 |  |
| O=[P+](O)c1cc2ccccc2c2ccccc12 |  | > 100 | > 100 | > 100 | > 100 | > 100 | > 100 | > 100 |  |  |  |  |  |  |  |  |  |  |  |  |
| CSc1nc(SC)c2c(C(N)=S)[nH]nc2n1 | 74.7 | > 100 | 58.5 | 99.5 | > 100 | 69.5 |  | > 100 | 87.1 |  |  |  |  |  |  |  |  |  |  |  |
| COC(=O)[C@@]1(O)CC(C)C=C1C=O (stereo partly specified) | > 100 | > 100 | > 100 | > 100 | > 100 | > 100 | 94.9 | > 100 | > 100 |  |  |  |  |  |  |  |  |  |  |  |
| O=C1C(Cl)=C(Nc2cccc(O)c2)C(=O)N1Cc1ccc(Cl)cc1 |  |  | 23 | 23 | 44.4 | > 100 | 21.7 | 11.3 | 14.8 | 3.18 |  |  | 4.55 | 2.11 | 4.93 | 3.65 | 2.98 | 1.58 | 10.2 | 0.358 |
| C[C@]1(C(=O)O)N[C@H](C(=O)O)CS1 | > 1000 | > 1000 | > 1000 | > 1000 | > 1000 | > 1000 | > 1000 | > 1000 |  | > 1000 | > 1000 | > 1000 | > 1000 | > 1000 | > 1000 | > 1000 | > 1000 | > 1000 | > 1000 |  |
| COc1ccc(-c2nnc(-c3c(C)n(C)n(-c4ccccc4)c3=O)o2)cc1 | > 100 | > 100 | > 100 | > 100 | > 100 | > 100 | > 100 | > 100 | > 100 |  |  |  |  |  |  |  |  |  |  |  |
| CCCCCCCC(=O)OCC1OC(n2cc(F)c(=O)[nH]c2=O)C(NC(=O)OCc2ccccc2)C(O)C1O (stereo unspecified) | > 100 | > 100 | > 100 | > 100 | > 100 | > 100 | 92 | > 100 | > 100 |  |  |  |  |  |  |  |  |  |  |  |
| CC1(C)N=C(N)N=C(N)N1c1ccc(CCc2ccc(Cl)cc2S(=O)(=O)F)c(Cl)c1 | > 100 |  | 23 | 23.4 | 69.1 | 44.4 |  | 17.6 | 76.5 |  | 44.6 |  | 7 | 4.63 | 7.99 | 7.2 | 6.73 | > 100 | > 100 | 6.05 |
| COc1ccc2c3c(c4ccccc4cc13)C(=O)N(CCN(C)CCN)C2=O | 0.17 | 1.13 | 0.264 | 2.48 | 1.61 | 0.22 | 1.23 | 1.28 |  | 0.0742 | 0.0187 | 0.114 | 0.0267 | 0.171 | 1.09 | 0.107 | 0.021 | 0.116 | 1.65 |  |
| COc1cc([C@H]2c3cc4c(cc3[C@H](NCc3ccc([N+](=O)[O-])cc3)C3COC(=O)[C@H]32)OCO4)cc(OC)c1O (stereo partly specified) | 2.32 | 14.6 | 0.784 | > 100 | 7.62 | > 100 |  | 11.4 |  |  |  |  |  |  |  |  |  |  |  |  |
